Tests used:
CD34^+CD38^− cells = experiment: Expansion of CD34+CD38- cells using human cord blood-derived CD34+ cells (Assay Example 1); assay type: cell-based; details: for Comparison with TPO: CD34^+CD38^− cells; for Expansion efficiency (CD34^+CD38^− cells): 100 ng/mL SCF, 7 days, based on the number of CD34^+CD38^− cells in the absence of compound
Procedure: (§1) Human cord blood-derived CD34^+ cells were purchased from Lonza and plated on a 24-well plate (Corning) (10000 cells/1 mL/well). As the culture medium, StemSpan SFEM (StemCell Technologies) containing 100 ng/mL SCF (Wako Pure Chemical Industries) was used, and one of Compounds No. 1 to 72 dissolved in dimethyl sulfoxide was added in an amount of 0.1% (v/v) to a final concentration of 1 or 3 μg/mL. As a positive control, TPO (PeproTech) was used at a final concentration of 10 ng/mL.
(§2) After the cells were incubated in liquid culture at 37° C. for 7 days in a CO2 incubator (5% CO2), the number of viable cells was counted by trypan blue assay. The number of CD34^+CD38^− cells was calculated as follows. After the incubation, the cells in the liquid culture was stained with a CD34 antibody (APC, Becton, Dickinson and Company) and a CD38 antibody (PE, Becton, Dickinson and Company), then washed with PBS(−) containing 2% (v/v) FBS and stained with propidium iodide (Sigma-Aldrich Japan) added to a final concentration of 5 μg/mL. The stained cells were analyzed with a BD FACSCANTO™ II flow cytometer (Becton, Dickinson and Company) to determined the proportions of CD34^+ cells and CD34^+CD38^− cells, which was multiplied by the number of viable cells to calculate the numbers of CD34^+ cells and CD34^+CD38^− cells.
(§3) The expansion efficiencies in the presence of 1 or 3 μg/mL of compounds based on the number of CD34^+ cells in the absence of them are shown in Tables 3-1 and 3-2 on a scale of A for expansion efficiencies of 6 or greater, B for expansion efficiencies of at least 4 and less than 6, and C for expansion efficiencies of at least 2 and less than 4. The expansion efficiencies in the presence of 1 or 3 μg/mL of compounds based on the number of CD34^+CD38^− cells in the absence of them are shown in Tables 4-1 and 4-2 on a scale of A for expansion efficiencies of 10 or greater, B for expansion efficiencies of at least 5 and less than 10, and C for expansion efficiencies of at least 3 and less than 5. Further, in Table 3, the compounds with an expansion efficiency twice or more greater than that of TPO are marked with O.

CD34^+ cells = experiment: Expansion of CD34+ cells using human cord blood-derived CD34+ cells (Assay Example 1); assay type: cell-based; details: 100 ng/mL SCF, 7 days, based on the number of CD34^+ cells in the absence of compound
Procedure: as §1, §2, §3

[1] = 3 μg/mL compound vs TPO 10 ng/mL

| Compound | Comparison with TPO (CD34^+CD38^− cells; [1]) | Expansion efficiency (CD34^+CD38^− cells) (CD34^+CD38^− cells; 3 μg/mL compound) | Expansion efficiency (CD34^+ cells) (CD34^+ cells; 3 μg/mL compound) | Comparison with TPO (CD34^+CD38^− cells; 1 μg/mL compound vs TPO 10 ng/mL) | Expansion efficiency (CD34^+CD38^− cells) (CD34^+CD38^− cells; 1 μg/mL compound) | Expansion efficiency (CD34^+ cells) (CD34^+ cells; 1 μg/mL compound) |
| --- | --- | --- | --- | --- | --- | --- |
| CC(=NNC(=O)c1ccc(C(=O)NCc2ccc(C(=O)NCCN3CCNCC3)cc2)s1)c1csc(-c2ccc(C(C)(C)C)cc2)c1O [compound 29] | ∘ | A (A for expansion efficiencies of 10 or greater) | A (A for expansion efficiencies of 6 or greater) | – | – | – |
| CC(=NNC(=O)c1ccc(C(=O)NCc2ccc(C(=O)NCCN3CCNCC3)cc2)s1)c1csc(-c2ccc(Br)cc2)c1O [compound 30] | ∘ | A (A for expansion efficiencies of 10 or greater) | A (A for expansion efficiencies of 6 or greater) | – | – | – |
| COCCOCCNC(=O)c1ccc(CNC(=O)c2ccc(C(=O)NN=C(C)c3csc(-c4ccc(Cl)c(Cl)c4)c3O)s2)cc1 [compound 31] | – | A (A for expansion efficiencies of 10 or greater) | C (C for expansion efficiencies of at least 2 and less than 4) | – | – | – |
| CC(=NNC(=O)c1ccc(C(=O)NCc2ccc(C(=O)NCCN(CCO)CCO)cc2)s1)c1csc(-c2ccc(C(C)(C)C)cc2)c1O [compound 23] | ∘ | A (A for expansion efficiencies of 10 or greater) | A (A for expansion efficiencies of 6 or greater) | – | – | – |
| COCCOCCNC(=O)c1ccc(CNC(=O)c2ccc(C(=O)NN=C(C)c3csc(-c4ccc(C(C)(C)C)cc4)c3O)s2)cc1 [compound 32] | ∘ | A (A for expansion efficiencies of 10 or greater) | A (A for expansion efficiencies of 6 or greater) | – | – | – |
| CC(=NNC(=O)c1ccc(C(=O)NCc2ccc(CC(N)=O)cc2)s1)c1csc(-c2ccc(Br)cc2)c1O [compound 68] | ∘ | A (A for expansion efficiencies of 10 or greater) | A (A for expansion efficiencies of 6 or greater) | – | – | – |
| CC(=NNC(=O)c1ccc(C(=O)NCc2ccc(C(=O)NCCOCCO)cc2)s1)c1csc(-c2ccc(C(F)(F)F)cc2)c1O [compound 62] | ∘ | A (A for expansion efficiencies of 10 or greater) | A (A for expansion efficiencies of 6 or greater) | – | – | – |
| CC(=NNC(=O)c1ccc(C(=O)NCc2ccc(C(=O)NCC3CCCO3)cc2)s1)c1csc(-c2ccc(Cl)c(Cl)c2)c1O (centres unmarked) [compound 10] | – | A (A for expansion efficiencies of 10 or greater) | B (B for expansion efficiencies of at least 4 and less than 6) | – | – | – |
| CCCCOCCOCCNC(=O)c1ccc(CNC(=O)c2ccc(C(=O)NN=C(C)c3csc(-c4ccc(Br)cc4)c3O)s2)cc1 [compound 36] | – | B (B for expansion efficiencies of at least 5 and less than 10) | C (C for expansion efficiencies of at least 2 and less than 4) | – | – | – |
| CCCCOCCOCCNC(=O)c1ccc(CNC(=O)c2ccc(C(=O)NN=C(C)c3csc(-c4ccc(Cl)c(Cl)c4)c3O)s2)cc1 [compound 34] | – | B (B for expansion efficiencies of at least 5 and less than 10) | C (C for expansion efficiencies of at least 2 and less than 4) | – | – | – |
| CCCCCCOCCOCCNC(=O)c1ccc(CNC(=O)c2ccc(C(=O)NN=C(C)c3csc(-c4ccc(Cl)c(Cl)c4)c3O)s2)cc1 [compound 37] | – | A (A for expansion efficiencies of 10 or greater) | C (C for expansion efficiencies of at least 2 and less than 4) | – | – | – |
| CCCCCCOCCOCCNC(=O)c1ccc(CNC(=O)c2ccc(C(=O)NN=C(C)c3csc(-c4ccc(C(C)(C)C)cc4)c3O)s2)cc1 [compound 38] | – | A (A for expansion efficiencies of 10 or greater) | C (C for expansion efficiencies of at least 2 and less than 4) | – | – | – |
| CC(=NNC(=O)c1ccc(C(=O)NCc2ccc(C(=O)NCCOCCO)cc2)s1)c1csc(-c2ccc(OC(F)(F)F)cc2)c1O [compound 64] | – | – | – | ∘ | A (A for expansion efficiencies of 10 or greater) | A (A for expansion efficiencies of 6 or greater) |
| CC(=NNC(=O)c1ccc(C(=O)NCc2ccc(C(=O)NCCN(CCO)CCO)cc2)s1)c1csc(-c2ccc(Br)cc2)c1O [compound 24] | ∘ | A (A for expansion efficiencies of 10 or greater) | A (A for expansion efficiencies of 6 or greater) | – | – | – |
| CC(=NNC(=O)c1ccc(C(=O)NCc2ccc(C(=O)NCc3ccccn3)cc2)s1)c1csc(-c2ccc(C(C)(C)C)cc2)c1O [compound 5] | – | A (A for expansion efficiencies of 10 or greater) | B (B for expansion efficiencies of at least 4 and less than 6) | – | – | – |
| CC(=NNC(=O)c1ccc(C(=O)NCc2ccc(C(=O)NCc3ccco3)cc2)s1)c1csc(-c2ccc(Cl)c(Cl)c2)c1O [compound 7] | – | B (B for expansion efficiencies of at least 5 and less than 10) | C (C for expansion efficiencies of at least 2 and less than 4) | – | – | – |
| CC(=NNC(=O)c1ccc(C(=O)NCc2ccc(C(=O)NCCOCCO)cc2)s1)c1csc(-c2ccc(Cl)c(Cl)c2)c1O [compound 59] | ∘ | A (A for expansion efficiencies of 10 or greater) | B (B for expansion efficiencies of at least 4 and less than 6) | – | – | – |
| CC(=NNC(=O)c1ccc(C(=O)NCc2ccc(C(=O)NCc3ccco3)cc2)s1)c1csc(-c2ccc(Br)cc2)c1O [compound 9] | – | B (B for expansion efficiencies of at least 5 and less than 10) | C (C for expansion efficiencies of at least 2 and less than 4) | – | – | – |
| CC(=NNC(=O)c1ccc(C(=O)NCc2ccc(C(=O)NCc3ccccn3)cc2)s1)c1csc(-c2ccc(Br)cc2)c1O [Compound No. 6] | – | C (C for expansion efficiencies of at least 3 and less than 5) | – | – | – | – |
| COCCOCCNC(=O)c1ccc(CNC(=O)c2ccc(C(=O)NN=C(C)c3csc(-c4ccc(Br)cc4)c3O)s2)cc1 [compound 33] | ∘ | A (A for expansion efficiencies of 10 or greater) | A (A for expansion efficiencies of 6 or greater) | – | – | – |
| CC(=NNC(=O)c1cccc(C(=O)NCc2ccc(C(=O)NCCOCCO)cc2)n1)c1csc(-c2ccc(C(C)(C)C)cc2)c1O [compound 50] | – | C (C for expansion efficiencies of at least 3 and less than 5) | – | – | – | – |
| CC(=NNC(=O)c1ccc(C(=O)NCc2ccc(C(=O)NCCN3CCN(C(=O)OC(C)(C)C)CC3)cc2)s1)c1csc(-c2ccc(Br)cc2)c1O [compound 27] | – | C (C for expansion efficiencies of at least 3 and less than 5) | – | – | – | – |
| CC(=NNC(=O)c1ccc(C(=O)NCc2ccc(C(=O)NCc3ccco3)cc2)s1)c1csc(-c2ccc(C(C)(C)C)cc2)c1O [compound 8] | – | B (B for expansion efficiencies of at least 5 and less than 10) | – | – | – | – |
| CC(=NNC(=O)c1ccc(C(=O)NCc2ccc(C(=O)NCCOCCO)cc2)nc1)c1csc(-c2ccc(C(C)(C)C)cc2)c1O [compound 47] | – | B (B for expansion efficiencies of at least 5 and less than 10) | – | – | – | – |

Reference: US9328085B2, “Heterocyclic compounds and expansion agents for hematopoietic stem cells” (NISSAN CHEMICAL INDUSTRIES, LTD., priority 2009, dated 2016)
